Assay results reported in patent US20090163586A1, “Bis-(Sulfonylamino) Derivatives in Therapy 205” (AstraZeneca AB, priority 2007, published 2009).

Molecular target: T1, human mPGES-1 (Homo sapiens, UniProt O14684)
T1 sequence (O14684 1-152): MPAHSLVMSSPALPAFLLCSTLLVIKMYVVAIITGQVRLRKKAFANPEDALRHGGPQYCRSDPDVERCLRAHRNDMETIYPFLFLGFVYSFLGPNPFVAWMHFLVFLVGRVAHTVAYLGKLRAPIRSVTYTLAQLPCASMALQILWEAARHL
Test: Microsomal prostaglandin E synthase biochemical assay
Conditions: microsome preparation containing human mPGES-1; PGH2 10.8 μM, GSH 2.5 mM, pH 6.8; PGE2 by HTRF; average of at least n=2
Experimental: Compounds were tested as inhibitors of microsomal prostaglandin E synthase activity in microsomal prostaglandin E synthase assays and whole cell assays. These assays measure prostaglandin E2 (PGE2) synthesis which is taken as a measure of prostaglandin E synthase activity. Microsomal prostaglandin E synthase biochemical assays used microsomal prostaglandin E synthase-1 in microsomal preparations. The source of the microsomes can be for example interleukin-1β-stimulated human A549 cells (which express human mPGES-1) or Sf9 cells transfected with plasmids encoding human mPGES-1 cDNA. The whole blood assay [described by Patrignani, P. et al., Journal of Pharmacology and Experimental Therapeutics, 1994, vol. 271, pp 1705-1712] was used as the whole cell assay for testing the compounds. Whole blood provides a protein and cell rich milieu for the study of biochemical efficacy of anti-inflammatory compounds such as prostaglandin synthase inhibitors. To study the inhibitory activities of these compounds, human blood was stimulated with lipopolysaccharide (LPS) for typically 16 hours to induce mPGES-1 expression, after which the concentration of produced PGE2 was measured by competitive-immuno assay (homogeneous time-resolved fluorescence, HTRF) as read out for effectiveness against mPGES-1-dependent PGE2 production.
Microsomal Prostaglandin E Synthase Biochemical Assay
A solution of test compound was added to a diluted microsome preparation containing human mPGES-1 and pre-incubated for 15 minutes in potassium phosphate buffer pH 6.8 with cofactor glutathione (GSH). Corresponding solutions without test compound were used as positive controls, and corresponding solutions without test compound and without microsomes were used as negative controls. The enzymatic reaction was then started by addition of the substrate PGH2 in an organic solution (dry acetonitrile).
The typical reaction conditions of the enzymatic reaction were thus: Test compound: ranging from 60 μM to 0.002 μM, or zero in positive and negative controls; potassium phosphate buffer pH 6.8: 50 mM; GSH: 2.5 mM; mPGES-1-containing microsomes: 2 μg/mL (sample and positive controls) or 0 μg/mL (negative control); PGH2: 10.8 μM; Acetonitrile: 7.7% (v/v); DMSO: 0.6% (v/v). The reaction was stopped after one minute by adding an acidic solution (pH 1.9) of ferric chloride and citrate (final concentrations 7 mM and 47 mM respectively), by which the PGH2 was sequestered (the PGH2 is reduced to mainly 12-hydroxy heptadecatrineoic acid (12-HHT) which is not detected by the subsequent PGE2 detection step). The resulting solution was then pH neutralized by addition of potassium phosphate buffer, prior to diluting an aliquot of the resulting solution in a weak potassium phosphate buffer (50 mM, pH 6.8) containing 0.2% BSA (w/v). [Adapted from Jacobsson et al., Proc. Natl. Acad. Sci. USA, 1999, vol. 96, pp. 7220-7225]The PGE2 formed was quantified by use of a commercial HTRF based kit (catalogue #62PG2PEC or #62P2APEC from Cisbio International). 100% activity was defined as the PGE2 production in positive controls subtracted by the PGE2 production in the negative controls. IC50 values were then determined using standard procedures.
The potency is expressed as IC50 and the value indicated is an average of at least n=2.

SMILES	IC50 [nM]
NS(=O)(=O)c1cc(F)ccc1NS(=O)(=O)/C=C/c1cccc(Cl)c1 [Example 51, 2-[[(E)-2-(3-Chlorophenyl)ethenyl]sulfonylamino]-5-fluoro-benzenesulfonamide]	4900
NS(=O)(=O)c1cccc(F)c1NS(=O)(=O)/C=C/c1ccc(-c2ccccc2)cc1 [Example 59, 3-Fluoro-2-[[(E)-2-(4-phenylphenyl)ethenyl]sulfonylamino]benzenesulfonamide]	2300
COc1ccccc1/C=C/S(=O)(=O)Nc1c(F)cccc1S(N)(=O)=O [Example 60, 3-Fluoro-2-[[(E)-2-(2-methoxyphenyl)ethenyl]sulfonylamino]benzenesulfonamide]	2400
NS(=O)(=O)c1ccc(F)cc1NS(=O)(=O)/C=C/c1cccc(C(F)(F)F)c1 [Example 61, 4-Fluoro-2-[[(E)-2-[3-(trifluoromethyl)phenyl]ethenyl]sulfonylamino]-benzenesulfonamide]	2400
NS(=O)(=O)c1c(F)cccc1NS(=O)(=O)/C=C/c1ccccc1F [Example 62, 2-Fluoro-6-[[(E)-2-(2-fluorophenyl)ethenyl]sulfonylamino]benzenesulfonamide]	2500
Cc1ccc(NS(=O)(=O)/C=C/c2cccc(Cl)c2)c(S(N)(=O)=O)c1 [Example 63, 2-[[(E)-2-(3-Chlorophenyl)ethenyl]sulfonylamino]-5-methyl-benzenesulfonamide]	3000
NS(=O)(=O)c1cccc(F)c1NS(=O)(=O)/C=C/c1cccc(Cl)c1 [Example 64, 2-[[(E)-2-(3-Chlorophenyl)ethenyl]sulfonylamino]-3-fluoro-benzenesulfonamide]	3100
NS(=O)(=O)c1cccc(F)c1NS(=O)(=O)/C=C/c1cccc(C(F)(F)F)c1 [Example 65, 3-Fluoro-2-[[(E)-2-[3-(trifluoromethyl)phenyl]ethenyl]sulfonylamino]-benzenesulfonamide]	3800
NS(=O)(=O)c1c(F)cccc1NS(=O)(=O)/C=C/c1cccc(C(F)(F)F)c1 [Example 66, 2-Fluoro-6-[[(E)-2-[3-(trifluoromethyl)phenyl]ethenyl]sulfonylamino]-benzenesulfonamide]	6200
NS(=O)(=O)c1ccc(F)cc1NS(=O)(=O)/C=C/c1ccccc1F [Example 67, 4-Fluoro-2-[[(E)-2-(2-fluorophenyl)ethenyl]sulfonylamino]benzenesulfonamide]	6400
Cc1ccc(NS(=O)(=O)/C=C/c2cccc(C(F)(F)F)c2)c(S(N)(=O)=O)c1 [Example 68, 5-Methyl-2-[[(E)-2-[3-(trifluoromethyl)phenyl]ethenyl]sulfonylamino]-benzenesulfonamide]	9100
NS(=O)(=O)c1ccccc1NS(=O)(=O)CCc1ccccc1 [Example 74, 2-(Phenethylsulfonylamino)benzenesulfonamide]	9800
NS(=O)(=O)c1ccccc1NS(=O)(=O)/C=C/c1ccccc1 [Example 75, 2-[[(E)-2-Phenylethenyl]sulfonylamino]benzenesulfonamide]	2600
NS(=O)(=O)c1ccccc1NS(=O)(=O)CCc1ccccc1Cl [Example 76, 2-[2-(2-Chlorophenyl)ethylsulfonylamino]benzenesulfonamide]	1200
COc1ccc(/C=C/S(=O)(=O)Nc2ccccc2S(N)(=O)=O)cc1 [Example 77, 2-[[(E)-2-(4-Methoxyphenyl)ethenyl]sulfonylamino]benzenesulfonamide]	3100
CC(CS(=O)(=O)Nc1ccccc1S(N)(=O)=O)c1ccccc1 (stereo not shown) [Example 79, 2-(2-Phenylpropylsulfonylamino)benzenesulfonamide]	9900
NS(=O)(=O)c1ccccc1NS(=O)(=O)/C=C/c1c(Cl)cccc1Cl [Example 81, 2-[[(E)-2-(2,6-Dichlorophenyl)ethenyl]sulfonylamino]benzenesulfonamide]	2900

Stronger by IC50, values ahead:

IC50 [nM]	SMILES
620	COc1ccccc1/C=C/S(=O)(=O)Nc1cccc(F)c1S(N)(=O)=O [Example 57, 2-Fluoro-6-[[(E)-2-(2-methoxyphenyl)ethenyl]sulfonylamino]benzenesulfonamide]
590	NS(=O)(=O)c1ccccc1NS(=O)(=O)/C=C/c1ccccc1Cl [Example 48, 2-[2-(2-Chloro-phenyl)-ethenesulfonylamino]-benzenesulfonamide]
570	NS(=O)(=O)c1c(F)cccc1NS(=O)(=O)/C=C/c1ccc(Cl)cc1 [Example 80, 2-[[(E)-2-(4-Chlorophenyl)ethenyl]sulfonylamino]-6-fluoro-benzenesulfonamide]
530	NS(=O)(=O)c1c(F)cccc1NS(=O)(=O)/C=C/c1cccc(Cl)c1 [Example 56, 2-[[(E)-2-(3-Chlorophenyl)ethenyl]sulfonylamino]-6-fluoro-benzenesulfonamide]
490	NS(=O)(=O)c1ccccc1NS(=O)(=O)CCc1ccc(Cl)cc1 [Example 72, 2-[2-(4-Chlorophenyl)ethylsulfonylamino]benzenesulfonamide]
360	COc1ccccc1/C=C/S(=O)(=O)Nc1ccc(F)cc1S(N)(=O)=O [Example 55, 5-Fluoro-2-[[(E)-2-(2-methoxyphenyl)ethenyl]sulfonylamino]benzenesulfonamide]
350	NS(=O)(=O)c1ccc(F)cc1NS(=O)(=O)/C=C/c1ccc(Cl)cc1 [Example 78, 2-[[(E)-2-(4-Chlorophenyl)ethenyl]sulfonylamino]-4-fluoro-benzenesulfonamide]
300	COc1ccccc1/C=C/S(=O)(=O)Nc1cc(F)ccc1S(N)(=O)=O [Example 58, 4-Fluoro-2-[[(E)-2-(2-methoxyphenyl)ethenyl]sulfonylamino]benzenesulfonamide]
300	CC(C)(C)c1ccc(CCS(=O)(=O)Nc2cc(F)ccc2S(N)(=O)=O)cc1 [Example 71, 4-Fluoro-2-[2-(4-tert-butylphenyl)ethylsulfonylamino]benzenesulfonamide]
290	NS(=O)(=O)c1ccccc1NS(=O)(=O)/C=C/c1ccc(Cl)cc1 [Example 73, 2-[[(E)-2-(4-Chlorophenyl)ethenyl]sulfonylamino]benzenesulfonamide]
270	NS(=O)(=O)c1cc(F)ccc1NS(=O)(=O)/C=C/c1cccc(C(F)(F)F)c1 [Example 54, 5-Fluoro-2-[[(E)-2-[3-(trifluoromethyl)phenyl]ethenyl]sulfonylamino]-benzenesulfonamide]
270	NS(=O)(=O)c1ccccc1NS(=O)(=O)CCc1ccc(C2CCCC2)cc1 [Example 69, 2-[2-(4-Cyclopentylphenyl)ethylsulfonylamino]benzenesulfonamide]
220	CC(C)(C)c1ccc(CCS(=O)(=O)Nc2ccccc2S(N)(=O)=O)cc1 [Example 70, 2-[2-(4-Tert-butylphenyl)ethylsulfonylamino]benzenesulfonamide]
160	NS(=O)(=O)c1ccc(F)cc1NS(=O)(=O)/C=C/c1ccc(-c2ccccc2)cc1 [Example 53, 4-Fluoro-2-[[(E)-2-(4-phenylphenyl)ethenyl]sulfonylamino]benzenesulfonamide]
130	NS(=O)(=O)c1c(F)cccc1NS(=O)(=O)/C=C/c1ccc(-c2ccccc2)cc1 [Example 50, 2-Fluoro-6-[[(E)-2-(4-phenylphenyl)ethenyl]sulfonylamino]benzenesulfonamide]
84	NS(=O)(=O)c1cc(F)ccc1NS(=O)(=O)/C=C/c1ccc(-c2ccccc2)cc1 [Example 52, 5-Fluoro-2-[[(E)-2-(4-phenylphenyl)ethenyl]sulfonylamino]benzenesulfonamide]
36	COc1cc(Cl)ccc1/C=C/S(=O)(=O)Nc1ccccc1S(N)(=O)=O [Example 49, 2-[2-(4-Chloro-2-methoxy-phenyl)-ethenesulfonylamino]-benzenesulfonamide]
